Laboratory results from publication PMC7669869, “AdipoR1/AdipoR2 dual agonist recovers nonalcoholic steatohepatitis and related fibrosis via endoplasmic reticulum-mitochondria axis” (Nature Communications, 2020).
Where “and” joins values, the source holds several entries; their conditions need not be identical. Equal values may be shown once. Non-standard residues stand in square brackets, D forms with d. Residues, ends and D or L forms follow the SMILES beside them. Nva = CCC[C@H](N)C(=O)O

Legend:
[1] = Serum stability assay (RP-HPLC); type: in vitro ADME; conditions: for Fraction of peptide remaining, Supplementary Figure 5: mouse serum
Protocol: The stability of candidate peptides was investigated following procedure. […] Ice-cold acetonitrile was added to terminate the reaction. Vortex and stand for 1 min, deionized water with 1% TFA was added to the mixture to further terminate the reaction. Mixtures were then centrifuged (13,000g, 10 min) to obtain the supernatant. RP-HPLC-MS was applied to analysis the content of candidate peptides. The serum stability of candidate peptides was represented as the retention rate of each peptide.

AdipoR2 = target: T1, AdipoR2 (Homo sapiens, UniProt Q86V24); assay: Competition binding assay vs globular adiponectin (western blot), AdipoR2 overexpression cells; conditions: JT003 4 h, then 50 μg ml−1 gAd155–161 4 h, in words
T1 construct: His; host or cells: HEK293
T1 sequence (Q86V24 1-386): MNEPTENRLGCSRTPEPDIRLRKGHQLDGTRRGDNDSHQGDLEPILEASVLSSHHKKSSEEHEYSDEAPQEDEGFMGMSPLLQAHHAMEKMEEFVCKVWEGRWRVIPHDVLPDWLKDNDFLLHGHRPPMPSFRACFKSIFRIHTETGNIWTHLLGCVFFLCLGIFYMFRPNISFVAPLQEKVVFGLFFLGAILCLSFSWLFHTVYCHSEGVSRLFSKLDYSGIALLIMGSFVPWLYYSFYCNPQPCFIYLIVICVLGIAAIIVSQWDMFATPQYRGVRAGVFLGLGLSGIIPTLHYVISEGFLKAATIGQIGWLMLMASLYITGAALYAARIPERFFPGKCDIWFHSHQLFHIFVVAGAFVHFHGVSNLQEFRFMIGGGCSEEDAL
Protocol: Different concentration of JT003 were incubated with AdipoR1 or AdipoR2 overexpression HEK293 cell line for 4 h. After that, 50 μg ml^−1 gAd155–161 were added for another 4 h incubation. The binding of gAd155–161 to the cells were measured via western blot assay.

HFD induced NASH mice = assay: HFD mice: fasting blood glucose, fasting insulin and adiponectin (ELISA); type: in vivo, mouse; conditions: JT003 500 μg kg−1 i.p. daily 4 weeks, in words
Protocol: The NASH model was conducted with feeding a HFD for 16 weeks combine with a MCD diet (Methionine/Choline Deficient Diet, Medicience, China) in the last 4 weeks. Mice administered a MCS diet (Methionine/Choline Sufficient Diet, Medicience, China) serves as control group. NAFLD or NASH mice treated with JT003 for 4 weeks were used to evaluate the pharmacological effects (n = 6; 500 μg kg^−1; daily intraperitoneal injection). Food and water were provided ad libitum. The body weight of mice was examined every 3 days. The diet was renewed every 7 days. JT003 was diluted in PBS.
Fasting blood glucose was measured using OneTouch UltraVue Blood Glucose Meter and test strips (Johnson&Johnson, USA) from tail nicks. After HFD fed for 14 weeks and JT003 treated for 2 weeks, oral glucose tolerance tests were performed on 8 h fasted mice. 0.5 g ml^−1 D-glucose solution (Sigma-Aldrich, USA) were oral injected to mice (2 g kg^−1 of bodyweight), blood glucose level was recorded at baseline, 15, 30, 60, 120 min
(§1) The levels of ALT, AST, TC and TG in serum were determined using certain commercial assay kits (Nanjing Jiancheng Bioengineering Institute, China). Fasting adiponectin and insulin were quantified in plasma samples using corresponding commercially available Elisa kits (Cloud-Clone Crop, USA).

[2] = system: CCl4 induced liver fibrosis mice; assay: CCl4 mice: serum ALT, AST and liver HYP; type: in vivo, mouse; parameters: AST, Supplementary Figure 14 / HYP, Supplementary Figure 14: unit not given here; conditions: for HYP, Supplementary Figure 14 / AST, Supplementary Figure 14: CCl4 + JT003 mice; for HYP, Supplementary Figure 14: liver; for AST, Supplementary Figure 14: serum
Protocol: Male mice liver fibrosis was induced by intraperitoneal injection of 20% CCl4 (Sigma, USA) diluted in corn oil (Aladdin, China) every 3 days for 6 weeks (n = 6; 5 ml kg^−1 body weight). Mice injected with equivalent volume of corn oil serves as control group (n = 6). Liver fibrosis mice treated with JT003 for 3 weeks were used to evaluated the pharmacological effects (n = 6; 500 μg kg^−1; daily intraperitoneal injection).
as §1
The levels of TG and HYP in liver tissue were detected with certain commercial assay kit (Nanjing Jiancheng Bioengineering Institute, China). Formalin-fixed liver tissues were embedded in paraffin, sectioned into 5 μm slices. After deparaffinization and rehydration of the section slices, they were stained with Haematoxylin and Eosin or Periodic Acid-Schiff. For the detection of liver collagen content, Sirius Red staining for collagen was performed. OCT-embedded frozen liver tissues were sectioned into 12 μm slices, and Oil Red O staining was performed. The cryostat-cut slices were stained with freshly prepared Oil Red O working solution for 7 min Two independent experimenters who were blinded to the treatment evaluated the staining slides and analyzed the score for steatosis, glucogen accumulation and collagen proliferation area.

[3] = Pharmacokinetic assay in SD rats; type: in vivo, rat
Protocol: Male SpragueDawley (SD) rats were randomly divided into two groups (n = 3 per group) and received a single intravenous dose of JT003 (0.5 mg/kg) or ADP355 (1.0 mg kg^−1) respectively. Blood samples were collected at 5, 15, 30, 45 min and 1, 2, 3 h following the injection, and then were immediately centrifuged (4000g, 10 min, 4 °C) to obtain plasma samples. Plasma concentrations of the two peptides were measured by LC-MS/MS (ThermoFisher Scientific, USA). Pharmacokinetic parameters of JT003 and ADP355 were calculated using non-compartmental analysis in Phoenix WinNonlin (version 8.0, Pharsight, USA). The concentration values less than the LLOQ were set to zero for the analysis.

[4] = Sprague-Dawley, rat, male SD rats, single iv dose: JT003 0.5 mg/kg, ADP355 1.0 mg/kg, plasma, LC-MS/MS, non-compartmental, Mean ± SD, n = 3-6

With `CCC[C@H](NC(=O)[C@@H]1CCCN1)C(=O)N[C@@H](CC(C)C)C(=O)N[C@@H](Cc1ccc(O)cc1)C(=O)N[C@@H](Cc1ccc(O)cc1)C(=O)N[C@@H](Cc1ccccc1)C(=O)N[C@@H](C)C(N)=O` [JT003] (H-P[Nva]LYYFA-NH2) as the compound, how does the “Fraction of peptide remaining, Supplementary Figure 5” value (“Fraction of peptide remaining” for short) ([1]; time 0 (unit not given), replicate 1) read?
The value was 0.9904.

What about the “Fraction of peptide remaining” value ([1]; time 0 (unit not given), replicate 2) of the same compound?
Its value is 1.127.

And the “Fraction of peptide remaining” value ([1]; time 0 (unit not given), replicate 3)?
The value was 0.9633.

What about the “Fraction of peptide remaining” value ([1]; time 1 (unit not given), replicate 2) of the same compound?
Its value is 0.7303.

And the “Fraction of peptide remaining” value ([1]; time 1 (unit not given), replicate 3)?
The value was 0.7063.

And the “Fraction of peptide remaining” value ([1]; time 2 (unit not given), replicate 1)?
The value was 0.4963.

What about the “Fraction of peptide remaining” value ([1]; time 2 (unit not given), replicate 2) of the same compound?
Its value is 0.5281.

And the “Fraction of peptide remaining” value ([1]; time 2 (unit not given), replicate 3)?
The value was 0.4921.

What about the “Fraction of peptide remaining” value ([1]; time 3 (unit not given), replicate 1) of the same compound?
Its value is 0.4291.

What about the “Fraction of peptide remaining” value ([1]; time 3 (unit not given), replicate 2) of the same compound?
Its value is 0.4706.

And the “Fraction of peptide remaining” value ([1]; time 3 (unit not given), replicate 3)?
Its value is 0.4115.

What about the “Fraction of peptide remaining” value ([1]; time 4 (unit not given), replicate 1) of the same compound?
Its value is 0.3431.

And the “Fraction of peptide remaining” value ([1]; time 4 (unit not given), replicate 2)?
Its value is 0.3616.

And the “Fraction of peptide remaining” value ([1]; time 4 (unit not given), replicate 3)?
Its value is 0.3877.

What about the “Fraction of peptide remaining” value ([1]; time 5 (unit not given), replicate 1) of the same compound?
Its value is 0.4378.

What about the “Fraction of peptide remaining” value ([1]; time 5 (unit not given), replicate 2) of the same compound?
The value was 0.3169.

And the “Fraction of peptide remaining” value ([1]; time 5 (unit not given), replicate 3)?
Its value is 0.3694.

And the “Fraction of peptide remaining” value ([1]; time 6 (unit not given), replicate 1)?
The value was 0.3549.

What about the “Fraction of peptide remaining” value ([1]; time 6 (unit not given), replicate 2) of the same compound?
The value was 0.2659.

What about the “Fraction of peptide remaining” value ([1]; time 6 (unit not given), replicate 3) of the same compound?
Its value is 0.2904.

What about the “Fraction of peptide remaining” value ([1]; time 8 (unit not given), replicate 2) of the same compound?
The value was 0.272.

What about the “Fraction of peptide remaining” value ([1]; time 8 (unit not given), replicate 3) of the same compound?
Its value is 0.2915.

What about the “Fraction of peptide remaining” value ([1]; time 12 (unit not given), replicate 2) of the same compound?
Its value is 0.1256.

And the “Fraction of peptide remaining” value ([1]; time 12 (unit not given), replicate 3)?
The value was 0.2003.

What about the remaining at 12 h, 5 mM ([1]; mouse, 5 mM peptide, 37 °C, 12 h, triplicate, mean, read-out: retention rate after incubation in serum) of the same compound?
The remaining at 12 h, 5 mM was about 22%.

And the “competitive binding to globular adiponectin, AdipoR2 overexpression cells” value (AdipoR2)?
Its value is “more JT003 cause less globular adiponectin binding”.

What about the “HFD-induced increasing of fasting blood glucose and fasting serum insulin levels” value (HFD induced NASH mice) of the same compound?
Its value is “decreased”.

What about the “decrease in circulating adiponectin in the HFD group” value (HFD induced NASH mice) of the same compound?
Its value is “reverted remarkably”.

What about the “HYP, Supplementary Figure 14” value ([2]; replicate 1) of the same compound?
The value was 4.654.

And the “HYP, Supplementary Figure 14” value ([2]; replicate 2)?
Its value is 11.7831.

What about the “HYP, Supplementary Figure 14” value ([2]; replicate 3) of the same compound?
Its value is 12.1297.

And the “AST, Supplementary Figure 14” value ([2]; replicate 1)?
Its value is 54.5376.

What about the “AST, Supplementary Figure 14” value ([2]; replicate 2) of the same compound?
The value was 45.2431.

And the “AST, Supplementary Figure 14” value ([2]; replicate 3)?
Its value is 22.8392.

What about the “AST, Supplementary Figure 14” value ([2]; replicate 4) of the same compound?
The value was 27.6777.

What about the “AST, Supplementary Figure 14” value ([2]; replicate 5) of the same compound?
Its value is 24.2523.

And the “AST, Supplementary Figure 14” value ([2]; replicate 6)?
Its value is 28.6282.

And the “ALT, AST and HYP activities” value ([2]; CCl4 mice, JT003 500 μg kg−1 i.p. daily 3 weeks, in words)?
Its value is “notably diminished”.

And the AUC(0-inf) [3, 4]?
The AUC(0-inf) was 20.9 ± 1.63 ng·h/mL.

And the AUC(0-t) [3, 4]?
The AUC(0-t) was 19.4 ± 1.51 ng·h/mL.

What about the MRT [3, 4] of the same compound?
Its MRT is 62.4 ± 1.8 min.

What about the clearance [3, 4] of the same compound?
Its clearance is 401 mL/min/kg.

What about the Vd ([3]; Sprague-Dawley, rat, male SD rats, single iv dose: JT003 0.5 mg/kg, ADP355 1.0 mg/kg, plasma, LC-MS/MS, non-compartmental, Mean ± SD, n = 3-6, read-out: V) of the same compound?
The Vd was 26 ± 2.29 L/kg.

And the t1/2 ([3]; male SD rats, single iv dose: JT003 0.5 mg/kg, ADP355 1.0 mg/kg, plasma, LC-MS/MS, non-compartmental, Mean ± SD, n = 3-6 (n = 3 per group))?
The t1/2 was 45 ± 0.6 min and 45 min.

And the “improved circulating half-life vs the predecessor compound (ADP355)” value ([3]; reviewer's reading of the PK experiment)?
Its value is 7-8 fold.
